Measurements from ChEMBL document CHEMBL1151717, “In vivo active aldosterone synthase inhibitors with improved selectivity: lead optimization providing a series of pyridine substituted 3,4-dihydro-1H-quinolin-2-one derivatives” (J Med Chem, 2008).

Legend:
[1] = target: T1, CYP1A2 (Homo sapiens, UniProt P05177); assay: Inhibition of human recombinant CYP1A2 expressed in baculovirus-infected insect microsomes at 2 uM; assay type: ADME, Microsome
T1 sequence (P05177 whole entry): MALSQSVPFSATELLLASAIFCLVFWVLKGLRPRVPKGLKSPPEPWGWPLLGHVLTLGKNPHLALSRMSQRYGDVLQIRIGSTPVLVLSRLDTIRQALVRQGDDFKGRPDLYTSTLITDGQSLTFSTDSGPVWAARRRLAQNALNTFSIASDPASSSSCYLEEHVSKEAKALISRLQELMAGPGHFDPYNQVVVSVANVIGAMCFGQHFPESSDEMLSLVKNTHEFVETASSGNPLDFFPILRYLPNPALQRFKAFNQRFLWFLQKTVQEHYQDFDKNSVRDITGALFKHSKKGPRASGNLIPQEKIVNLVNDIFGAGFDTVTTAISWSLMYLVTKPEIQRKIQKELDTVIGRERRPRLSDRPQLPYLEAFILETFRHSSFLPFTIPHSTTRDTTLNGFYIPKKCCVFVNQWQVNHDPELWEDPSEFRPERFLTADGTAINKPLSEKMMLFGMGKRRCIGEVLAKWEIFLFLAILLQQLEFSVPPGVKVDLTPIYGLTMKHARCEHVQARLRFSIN

[2] = target: T2, Cytochrome P450 1A2 (Homo sapiens, UniProt P05177)
T2 sequence (P05177 whole entry): T1 sequence (P05177 whole entry)

[3] = target: T3, CYP19 (aromatase) (Homo sapiens, UniProt P11511); assay: Inhibition of human placental CYP19 at 500 nM; assay type: functional
T3 sequence (P11511 whole entry): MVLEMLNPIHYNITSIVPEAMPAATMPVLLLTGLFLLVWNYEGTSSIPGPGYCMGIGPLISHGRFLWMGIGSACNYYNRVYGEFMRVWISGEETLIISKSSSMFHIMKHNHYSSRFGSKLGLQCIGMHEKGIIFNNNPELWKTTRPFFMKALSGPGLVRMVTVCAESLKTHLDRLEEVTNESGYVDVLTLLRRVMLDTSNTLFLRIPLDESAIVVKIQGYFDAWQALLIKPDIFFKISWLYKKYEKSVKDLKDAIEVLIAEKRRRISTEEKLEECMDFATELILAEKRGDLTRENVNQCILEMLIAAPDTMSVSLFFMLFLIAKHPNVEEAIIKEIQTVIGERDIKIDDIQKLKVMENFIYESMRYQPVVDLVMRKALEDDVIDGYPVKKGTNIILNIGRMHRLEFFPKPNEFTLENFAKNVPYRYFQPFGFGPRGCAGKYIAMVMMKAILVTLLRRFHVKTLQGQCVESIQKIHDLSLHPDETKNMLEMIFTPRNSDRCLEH

[4] = target: T4, Cytochrome P450 11B1, mitochondrial (Homo sapiens, UniProt P15538)
T4 sequence (P15538 whole entry): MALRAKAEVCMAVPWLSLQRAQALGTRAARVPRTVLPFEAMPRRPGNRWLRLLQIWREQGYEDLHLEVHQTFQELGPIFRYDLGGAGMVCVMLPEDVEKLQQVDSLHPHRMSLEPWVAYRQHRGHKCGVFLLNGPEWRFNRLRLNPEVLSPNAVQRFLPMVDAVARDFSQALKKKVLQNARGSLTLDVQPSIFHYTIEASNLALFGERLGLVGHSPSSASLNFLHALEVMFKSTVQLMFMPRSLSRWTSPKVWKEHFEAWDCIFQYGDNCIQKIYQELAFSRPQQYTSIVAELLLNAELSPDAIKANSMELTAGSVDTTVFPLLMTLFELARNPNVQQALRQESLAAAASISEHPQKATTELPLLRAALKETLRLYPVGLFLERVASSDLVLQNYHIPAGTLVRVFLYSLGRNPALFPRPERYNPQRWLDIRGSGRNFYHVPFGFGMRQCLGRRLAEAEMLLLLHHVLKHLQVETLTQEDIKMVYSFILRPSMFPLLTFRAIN

[5] = target: T5, CYP17 (Homo sapiens, UniProt P05093); assay: in vitro; details: human CYP17 expressed in Escherichia coli
T5 sequence (P05093 whole entry): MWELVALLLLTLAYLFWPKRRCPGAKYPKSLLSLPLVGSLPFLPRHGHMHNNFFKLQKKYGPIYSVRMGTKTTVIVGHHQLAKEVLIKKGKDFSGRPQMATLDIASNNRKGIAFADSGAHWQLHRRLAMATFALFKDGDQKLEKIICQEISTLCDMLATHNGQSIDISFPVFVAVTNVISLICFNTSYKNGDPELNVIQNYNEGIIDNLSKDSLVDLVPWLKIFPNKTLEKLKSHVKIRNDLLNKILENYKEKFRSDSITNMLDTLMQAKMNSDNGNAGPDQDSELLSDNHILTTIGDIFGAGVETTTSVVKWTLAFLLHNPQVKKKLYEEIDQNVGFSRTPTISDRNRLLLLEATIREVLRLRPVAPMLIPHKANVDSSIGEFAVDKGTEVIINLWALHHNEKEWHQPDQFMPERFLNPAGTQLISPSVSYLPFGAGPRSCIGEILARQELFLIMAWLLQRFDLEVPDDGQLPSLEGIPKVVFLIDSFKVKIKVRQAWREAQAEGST
Description: Inhibition of human CYP17 expressed in Escherichia coli at 2.5 uM

[6] = target: T6, Cytochrome P450 11B2, mitochondrial (Homo sapiens, UniProt P19099)
T6 sequence (P19099 whole entry): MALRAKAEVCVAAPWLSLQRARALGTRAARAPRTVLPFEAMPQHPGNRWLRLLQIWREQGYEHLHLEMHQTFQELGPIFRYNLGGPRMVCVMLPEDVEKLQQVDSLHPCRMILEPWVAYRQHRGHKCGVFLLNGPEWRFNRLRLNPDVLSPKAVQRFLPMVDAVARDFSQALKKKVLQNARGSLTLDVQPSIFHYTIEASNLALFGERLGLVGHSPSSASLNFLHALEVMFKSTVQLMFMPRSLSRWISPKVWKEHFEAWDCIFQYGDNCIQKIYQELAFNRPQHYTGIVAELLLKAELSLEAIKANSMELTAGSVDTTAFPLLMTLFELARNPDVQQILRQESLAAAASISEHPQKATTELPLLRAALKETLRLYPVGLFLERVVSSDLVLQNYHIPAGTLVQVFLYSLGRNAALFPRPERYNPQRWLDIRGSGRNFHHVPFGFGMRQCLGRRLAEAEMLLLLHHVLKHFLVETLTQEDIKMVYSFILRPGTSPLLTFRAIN

[7] = organism: Homo sapiens; assay: Selectivity ratio, IC50 for human CYP11B1 to IC50 for human CYP11B2
[8] = target: T6, Cytochrome P450 11B2, mitochondrial; assay: Inhibition of human CYP11B2 expressed in hamster V79 MZh cells at 500 nM; assay type: cell-based; details: V79MZh
[9] = target: Cytochrome P450 3A4 (Homo sapiens, UniProt P08684); assay: Inhibition of human recombinant CYP3A4 expressed in baculovirus-infected insect microsomes; assay type: ADME, Microsome
Sequence of Cytochrome P450 3A4 (P08684 whole entry): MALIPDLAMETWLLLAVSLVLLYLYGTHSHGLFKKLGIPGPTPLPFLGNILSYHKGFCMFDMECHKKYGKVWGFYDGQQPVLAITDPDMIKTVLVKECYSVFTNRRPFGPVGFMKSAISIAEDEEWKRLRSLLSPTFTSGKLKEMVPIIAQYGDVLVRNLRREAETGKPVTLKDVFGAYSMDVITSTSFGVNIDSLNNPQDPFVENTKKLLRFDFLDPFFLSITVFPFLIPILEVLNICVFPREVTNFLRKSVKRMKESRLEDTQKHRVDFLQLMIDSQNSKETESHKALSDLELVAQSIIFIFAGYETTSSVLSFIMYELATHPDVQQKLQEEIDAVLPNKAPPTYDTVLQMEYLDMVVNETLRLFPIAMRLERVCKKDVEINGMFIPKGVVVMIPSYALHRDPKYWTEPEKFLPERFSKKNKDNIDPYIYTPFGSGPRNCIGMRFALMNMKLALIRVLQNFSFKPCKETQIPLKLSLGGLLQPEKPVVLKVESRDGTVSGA

[10] = target: Cytochrome P450 2C19 (Homo sapiens, UniProt P33261); assay: Inhibition of human recombinant CYP2C19 expressed in baculovirus-infected insect microsomes; assay type: ADME, Microsome
Sequence of Cytochrome P450 2C19 (P33261 whole entry): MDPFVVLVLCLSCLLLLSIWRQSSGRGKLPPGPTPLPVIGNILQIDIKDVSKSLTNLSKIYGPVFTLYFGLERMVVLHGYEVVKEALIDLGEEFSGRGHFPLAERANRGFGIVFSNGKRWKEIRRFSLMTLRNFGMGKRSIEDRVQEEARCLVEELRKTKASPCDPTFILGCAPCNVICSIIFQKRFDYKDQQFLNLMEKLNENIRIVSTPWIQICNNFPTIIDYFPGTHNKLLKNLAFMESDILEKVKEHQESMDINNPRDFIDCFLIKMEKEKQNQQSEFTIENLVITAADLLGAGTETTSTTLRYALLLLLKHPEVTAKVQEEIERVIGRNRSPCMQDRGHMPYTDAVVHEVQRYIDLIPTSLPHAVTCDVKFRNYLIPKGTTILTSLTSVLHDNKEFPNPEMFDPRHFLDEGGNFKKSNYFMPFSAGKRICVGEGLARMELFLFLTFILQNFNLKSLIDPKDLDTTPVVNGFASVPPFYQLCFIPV

[11] = target: Cytochrome P450 2D6 (Homo sapiens, UniProt P10635); assay: Inhibition of human recombinant CYP2D6 expressed in baculovirus-infected insect microsomes; assay type: ADME, Microsome
Sequence of Cytochrome P450 2D6 (P10635 whole entry): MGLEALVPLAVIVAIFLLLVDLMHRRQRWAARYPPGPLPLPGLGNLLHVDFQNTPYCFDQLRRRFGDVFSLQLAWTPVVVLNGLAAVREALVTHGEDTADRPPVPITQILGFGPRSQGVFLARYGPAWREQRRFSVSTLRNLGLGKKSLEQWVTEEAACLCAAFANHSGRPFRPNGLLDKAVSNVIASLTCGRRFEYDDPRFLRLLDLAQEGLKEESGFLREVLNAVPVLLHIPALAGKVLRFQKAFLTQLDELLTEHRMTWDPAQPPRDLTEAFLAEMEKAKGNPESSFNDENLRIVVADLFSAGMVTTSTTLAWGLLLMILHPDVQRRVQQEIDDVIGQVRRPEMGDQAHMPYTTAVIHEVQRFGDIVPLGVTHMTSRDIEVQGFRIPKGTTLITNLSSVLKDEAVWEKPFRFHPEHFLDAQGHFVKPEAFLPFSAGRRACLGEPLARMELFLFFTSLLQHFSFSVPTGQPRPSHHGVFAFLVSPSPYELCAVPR

[12] = target: T7, Cytochrome P450 2B6 (Homo sapiens, UniProt P20813); assay: Inhibition of human recombinant CYP2B6 expressed in baculovirus-infected insect microsomes; assay type: ADME, Microsome
T7 sequence (P20813 whole entry): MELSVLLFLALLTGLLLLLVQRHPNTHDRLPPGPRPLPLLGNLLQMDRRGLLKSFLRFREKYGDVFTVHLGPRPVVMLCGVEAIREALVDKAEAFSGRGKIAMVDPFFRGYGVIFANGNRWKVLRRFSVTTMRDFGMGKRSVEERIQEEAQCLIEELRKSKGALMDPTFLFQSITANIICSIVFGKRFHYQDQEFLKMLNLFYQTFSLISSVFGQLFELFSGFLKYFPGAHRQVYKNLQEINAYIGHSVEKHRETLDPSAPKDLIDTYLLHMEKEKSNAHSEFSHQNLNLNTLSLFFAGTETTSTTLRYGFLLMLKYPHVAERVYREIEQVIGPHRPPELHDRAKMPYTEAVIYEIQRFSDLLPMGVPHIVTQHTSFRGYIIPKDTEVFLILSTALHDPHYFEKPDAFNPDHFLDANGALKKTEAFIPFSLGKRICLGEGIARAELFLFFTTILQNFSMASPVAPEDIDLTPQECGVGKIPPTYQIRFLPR

[13] = target: Cytochrome P450 2C9 (Homo sapiens, UniProt P11712); assay: Inhibition of human recombinant CYP2C9 expressed in baculovirus-infected insect microsomes; assay type: ADME, Microsome
Sequence of Cytochrome P450 2C9 (P11712 whole entry): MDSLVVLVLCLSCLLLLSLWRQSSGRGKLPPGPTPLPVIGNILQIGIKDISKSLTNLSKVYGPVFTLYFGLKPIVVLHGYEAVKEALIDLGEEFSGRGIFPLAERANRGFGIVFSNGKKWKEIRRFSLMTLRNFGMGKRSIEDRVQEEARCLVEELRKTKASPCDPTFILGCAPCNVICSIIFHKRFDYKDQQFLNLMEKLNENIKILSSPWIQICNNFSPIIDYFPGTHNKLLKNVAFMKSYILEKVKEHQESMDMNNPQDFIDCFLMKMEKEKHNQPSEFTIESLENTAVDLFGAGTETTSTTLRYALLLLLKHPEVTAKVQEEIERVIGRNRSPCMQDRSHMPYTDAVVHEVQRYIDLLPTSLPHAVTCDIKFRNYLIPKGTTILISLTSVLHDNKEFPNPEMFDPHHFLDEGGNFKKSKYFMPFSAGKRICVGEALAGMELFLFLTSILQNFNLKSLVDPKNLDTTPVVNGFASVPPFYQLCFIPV

[14] = AUC (0 to infinity) in Wistar rat at 5 mg/kg, po by cassette dosing; assay type: ADME, organism-based; design: time infinity, dose 5 mg/kg, route oral; details: plasma
[15] = Cmax in Wistar rat at 5 mg/kg, po by cassette dosing; assay type: ADME, organism-based; design: dose 5 mg/kg, route oral; details: in vivo
[16] = Tmax in Wistar rat at 5 mg/kg, po by cassette dosing; assay type: ADME, organism-based; design: dose 5 mg/kg, route oral; details: in vivo
[17] = Terminal half life in Wistar rat at 5 mg/kg, po by cassette dosing; assay type: ADME, organism-based; design: dose 5 mg/kg, route oral; details: in vivo, read-out: beta t1/2 (converted)
[18] = Protein binding in human plasma at 3 uM after 1 hr; assay type: ADME, cell-free; details: read-out: PPB (converted)
[19] = Protein binding in rat plasma at 3 uM after 1 hr; assay type: ADME, cell-free; details: read-out: PPB (converted)

| Structure (SMILES) | inhibition at 2 µM [1] | IC50 [2] | inhibition at 0.5 µM [3] | IC50 [4] | inhibition at 2.5 µM [5] | IC50 [6] | also measured |
| --- | --- | --- | --- | --- | --- | --- | --- |
| CCOC1CCc2cc(-c3cccnc3)ccc2C1 (stereo not drawn) | 73% | 0.62 µM |  |  |  |  |  |
| c1cncc(-c2ccc3ccccc3c2)c1 | 99% |  |  |  | 40% |  |  |
| COc1cncc(-c2ccc3c(c2)CCC(=O)N3)c1 | 25% | 5.24 µM | < 5% | 0.339 µM | 12% | 0.0027 µM | Ratio IC50 [7]: 126; inhibition at 0.5 µM [8]: 91% |
| CN1CCOc2cc(-c3cccnc3)ccc21 |  |  |  | 5.97 µM |  | 0.101 µM | Ratio IC50 [7]: 59; inhibition at 0.5 µM [8]: 71% |
| CCN1C(=O)CCc2cc(-c3cccnc3)ccc21 | 36% | 3.48 µM | 63% | 5.18 µM | < 5% | 0.022 µM |  |
| N#CC1CCc2cc(-c3cccnc3)ccc2C1 (stereo not drawn) | 72% | 0.66 µM |  |  |  |  |  |

Second part, led by results:

| inhibition at 2 µM [1] | IC50 [2] | inhibition at 0.5 µM [3] | IC50 [4] | inhibition at 2.5 µM [5] | IC50 [6] | Structure (SMILES) | also measured |
| --- | --- | --- | --- | --- | --- | --- | --- |
| 77% | 0.64 µM | < 5% | 0.58 µM | 72% | 0.0031 µM | S=C1CCc2cc(-c3cccnc3)ccc2N1 |  |
|  |  |  | 0.0069 µM |  | 0.0001 µM | CN1C(=O)CCc2cc(-c3cncc4ccccc34)ccc21 |  |
| 80% |  | 22% |  | 44% | 0.0033 µM | COC1CCc2cc(-c3cccnc3)ccc2C1 (stereo not drawn) | Ratio IC50 [7]: 347; inhibition at 0.5 µM [8]: 97%; IC50 [9]: 12.2 µM; IC50 [10]: < 200 µM; IC50 [11]: < 200 µM; IC50 [12]: 47.4 µM; IC50 [13]: 16.3 µM |
| 53% | 1.79 µM | 54% | 0.742 µM | 8% | 0.0026 µM | CN1C(=O)CCc2cc(-c3cccnc3)ccc21 | AUC(0-inf) [14]: 659 ng·h/mL; IC50 ([10]; read-out: IC50): 122 µM; IC50 [11]: < 200 µM; Cmax [15]: 86 ng/mL; IC50 [12]: < 50 µM; IC50 [13]: 125 µM; Tmax [16]: 6 h; half-life [17]: 2.3 h |
| 57% | 1.55 µM |  |  |  |  | O=C1CCc2cc(-c3cccnc3)ccc21 | AUC(0-inf) [14]: 3180 ng·h/mL; IC50 ([10]; read-out: IC50): 147 µM; fraction unbound at 1 h, 3 µM [18]: 0.78; Cmax [15]: 300 ng/mL; IC50 [12]: < 50 µM; IC50 [13]: 123 µM; Tmax [16]: 4 h; half-life [17]: 2.4 h; fraction unbound at 1 h, 3 µM [19]: 0.76 |
